Source: PubChem BioAssay (NCI)
Where “and” joins values, the source holds several entries; their conditions need not be identical. Equal entries are not always repeated.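 The compound was tested at five concentrations on cells cultured in 96-well plates, with a 48-hour exposure period. The concentration for 50% growth inhibition is given as GI50. TGI: total growth inhibition.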

Columns and labels:
Assay in all cases: NCI anticancer screen, dose series, 48 h
HCT-116 colon = system: HCT-116 colon
M14 melanoma = system: M14 melanoma
OVCAR-4 ovarian = system: OVCAR-4 ovarian
OVCAR-5 ovarian = system: OVCAR-5 ovarian
OVCAR-8 ovarian = system: OVCAR-8 ovarian
SK-MEL-2 melanoma = system: SK-MEL-2 melanoma
SK-MEL-28 melanoma = system: SK-MEL-28 melanoma
SNB-19 CNS = system: SNB-19 CNS
U251 CNS = system: U251 CNS
CCRF-CEM leukemia = system: CCRF-CEM leukemia

SMILES	TGI (HCT-116 colon) [µM]	TGI (M14 melanoma)	TGI (OVCAR-4 ovarian) [µM]	TGI (OVCAR-5 ovarian) [µM]	TGI (OVCAR-8 ovarian) [µM]	TGI (SK-MEL-2 melanoma)	TGI (SK-MEL-28 melanoma) [µM]	TGI (SNB-19 CNS) [µM]	TGI (U251 CNS) [µM]	TGI (CCRF-CEM leukemia) [µM]	GI50 (CCRF-CEM leukemia) [µM]	GI50 (HCT-116 colon) [µM]	GI50 (M14 melanoma) [µM]	GI50 (OVCAR-4 ovarian) [µM]	GI50 (OVCAR-5 ovarian) [µM]	GI50 (OVCAR-8 ovarian) [µM]	GI50 (SK-MEL-2 melanoma) [µM]	GI50 (SK-MEL-28 melanoma) [µM]	GI50 (SNB-19 CNS) [µM]	GI50 (U251 CNS) [µM]
COc1ccc(N2C(=O)CC(Cl)C2=O)cc1 (stereo not drawn)	32.2	> 100 µM	34.3	34.1	30.2	> 100 µM	30.2	> 100	> 100	–	–	–	–	–	–	–	–	–	–	–
Cc1cc(Cl)ccc1NC(=O)CCCC(=O)C1CCCC1=O (stereo not drawn)	> 100	> 100 µM	> 100	> 100	> 100	> 100 µM	–	> 100	> 100	> 100	–	–	–	–	–	–	–	–	–	–
Cc1[nH]c2ccccc2c1C1Cc2ccccc2N1C(=O)/C=C\C(=O)O (stereo not drawn)	> 100	> 100 µM	> 100	> 100	–	39.6 µM	–	68.6	70.7	94.1	–	–	–	–	–	–	–	–	–	–
COc1cc(/C=C/C(=O)CC(=O)/C=C/c2cc(OC)c(OC)c(OC)c2)cc(OC)c1OC	4.26	40 µM	19.7	> 100	13.8	78.8 µM	32.8	> 100	–	> 100	2.58	1.71	3.9	3.27	17.2	3.04	5.87	4.24	4.36	–
CCN(CC)CC(O)CNc1ccc(NCC2CO2)c2c1C(=O)c1ccccc1C2=O (stereo not drawn)	1.11	0.402 µM and 0.674 µM	3.3	7.76	1.32	0.785 µM and 0.839 µM	3.5	7.52	19.6	–	–	0.0866	–	–	–	–	–	0.631	–	0.373
CC(O)c1cccc(NCc2c3ccccc3c(=O)n3c2oc2ccccc23)c1 (stereo not drawn)	14.4	25.2 µM	–	> 100	36.2	46.9 µM	35.6	88.3	21.5	> 100	3.34	3.13	4.5	–	18.3	8.04	6.31	6	16.4	9.92
CCN1CCN(C(=O)[C@]23CC[C@@H](C)[C@H](C)[C@@H]2C2=CC[C@@H]4[C@@]5(C)C/C(=C/c6ccncc6)C(=O)C(C)(C)[C@@H]5CC[C@@]4(C)[C@]2(C)CC3)CC1	–	–	3.18	2.77	5.75	3.84 µM	3.03	2.99	3.38	6.28	2.42	–	–	1.65	1.46	2.26	1.91	1.65	1.58	1.72
C=CC1(C(=O)O)CCC(C(C)(C)C)CC1 (stereo not drawn)	> 100	> 100 µM	> 100	> 100	> 100	> 100 µM	–	> 100	> 100	–	–	–	–	–	–	–	–	–	–	–
CCOC(=O)C(Cc1c[nH]c2ccc(N)cc12)(NC(C)=O)C(=O)OCC	> 1000	> 1000 µM	> 1000	> 1000	> 1000	–	> 1000	> 1000	> 1000	> 1000	656	> 1000	–	> 1000	> 1000	> 1000	–	> 1000	> 1000	> 1000
O=C(/C=C/c1ccc([N+](=O)[O-])o1)N1CCN(Cc2ccccc2)CC1	22.7	16.7 µM	29.7	31.1	28.4	–	16.9	30.5	28.1	27.4	–	–	–	–	–	–	–	–	–	–
NC(=O)C(=Cc1ccc(C(O)P(=O)(O)O)cc1)C(N)=O (stereo not drawn)	> 100	> 100 µM	> 100	> 100	> 100	> 100 µM	> 100	> 100	> 100	–	–	–	–	–	–	–	–	–	–	–
CC/C(C)=C1\CCC(CN2CCOCC2)C1=O (stereo not drawn)	26.8	31.4 µM	31.7	31.3	50.6	32 µM	32	> 100	–	32	–	–	–	–	–	–	–	–	–	–
COc1cc(/C=C(\C#N)C(=O)c2ccccc2)ccc1OCc1ccccc1	> 100	> 100 µM	> 100	> 100	> 100	> 100 µM	> 100	> 100	–	> 100	–	–	–	–	–	–	–	–	–	–
Cc1c(NC(=O)C(C)(C)Br)c(=O)oc2c(C)c3occc(=O)c3cc12	> 100	> 100 µM	> 100	–	> 100	> 100 µM	> 100	> 100	> 100	> 100	–	–	–	–	–	–	–	–	–	–
COc1cc(Cl)c2c3c(c(C(C)=O)oc13)CCC2	> 100	> 100 µM	> 100	–	> 100	–	> 100	> 100	> 100	> 100	–	–	–	–	–	–	–	–	–	–
Cc1cc(I)cc(CN(C)CCCN2CCSCC2)c1O	30.8	33.2 µM	> 100	92.4	> 100	39.9 µM	87.6	55.6	95.6	–	–	13.3	17.3	44.7	29.1	34.8	19.2	27.9	25.6	33.9
O=S(=O)(N/N=C/c1ccc(/C=N/NS(=O)(=O)c2ccccc2)cc1)c1ccccc1	> 100	> 100 µM	> 100	51	> 100	> 100 µM	> 100	–	> 100	90.2	–	–	–	–	–	–	–	–	–	–
CCC1(CC)C(=O)OC(=O)C1(CC)CC	> 100	> 100 µM	> 100	–	> 100	> 100 µM	> 100	> 100	> 100	> 100	–	–	–	–	–	–	–	–	–	–
Nc1ccc(N(S(=O)(=O)c2ccccc2)S(=O)(=O)c2ccccc2)c(Cl)c1	> 100	> 100 µM	> 100	> 100	> 100	> 100 µM	> 100	> 100	> 100	–	–	–	–	–	–	–	–	–	–	–
